Measured values from article PMC9506414, “Novel 2,6,9-Trisubstituted Purines as Potent CDK Inhibitors Alleviating Trastuzumab-Resistance of HER2-Positive Breast Cancers” (Pharmaceuticals, 2022).

Experiments:
Assay in all cases: Kinome-wide inhibition profiling
Type in all cases: biochemical
RSK3 = target: T1, RSK3 (Homo sapiens, UniProt Q15349)
T1 construct: purchased Reaction Biology Corp
Protocol: (§1) In vitro CDK12/cyclinK assays for all compounds and in vitro kinome-wide inhibition profiling of 30d at 10 μM were performed by a CRO company (Reaction Biology Corp., San Diego, CA, USA).

MARK3 = target: T2, MARK3 (Homo sapiens, UniProt P27448)
T2 construct: purchased Reaction Biology Corp
Protocol: as §1

PCTK2 = target: T3, PCTK2 (Homo sapiens, UniProt Q00537)
T3 construct: purchased Reaction Biology Corp
Protocol: as §1

MAP4K5 = target: T4, MAP4K5 (Homo sapiens, UniProt Q9Y4K4)
T4 construct: purchased Reaction Biology Corp
Protocol: as §1

WNK2 = target: T5, WNK2 (Homo sapiens, UniProt Q9Y3S1)
T5 construct: purchased Reaction Biology Corp
Protocol: as §1

IRAK4 = target: T6, IRAK4 (Homo sapiens, UniProt Q9NWZ3)
T6 construct: purchased Reaction Biology Corp
Protocol: as §1

CSNK1E = target: T7, CSNK1E (Homo sapiens, UniProt P49674)
T7 construct: purchased Reaction Biology Corp
Protocol: as §1

JAK1 = target: T8, JAK1 (Homo sapiens, UniProt P23458)
T8 construct: purchased Reaction Biology Corp
Protocol: as §1

JNK1 = target: T9, JNK1 (Homo sapiens, UniProt P45983)
T9 construct: purchased Reaction Biology Corp
Protocol: as §1

NLK = target: T10, NLK (Homo sapiens, UniProt Q9UBE8)
T10 construct: purchased Reaction Biology Corp
Protocol: as §1

CSNK1G1 = target: T11, CSNK1G1 (Homo sapiens, UniProt Q9HCP0)
T11 construct: purchased Reaction Biology Corp
Protocol: as §1

CHEK1 = target: T12, CHEK1 (Homo sapiens, UniProt O14757)
T12 construct: purchased Reaction Biology Corp
Protocol: as §1

ERK7 = target: T13, ERK7 (Homo sapiens, UniProt Q8TD08)
T13 construct: purchased Reaction Biology Corp
Protocol: as §1

PAK5 = target: T14, PAK5 (Homo sapiens, UniProt Q9P286)
T14 construct: purchased Reaction Biology Corp
Protocol: as §1

TRKB = target: T15, TRKB (Homo sapiens, UniProt Q16620)
T15 construct: purchased Reaction Biology Corp
Protocol: as §1

CLK1 = target: T16, CLK1 (Homo sapiens, UniProt P49759)
T16 construct: purchased Reaction Biology Corp
Protocol: as §1

LYN = target: T17, LYN (Homo sapiens, UniProt P07948)
T17 construct: purchased Reaction Biology Corp
Protocol: as §1

NEK7 = target: T18, NEK7 (Homo sapiens, UniProt Q8TDX7)
T18 construct: purchased Reaction Biology Corp
Protocol: as §1

MYLK4 = target: T19, MYLK4 (Homo sapiens, UniProt Q86YV6)
T19 construct: purchased Reaction Biology Corp
Protocol: as §1

CDK1/cyclinB = target: T20, CDK1/cyclinB (Homo sapiens, UniProt P06493)
T20 construct: purchased Reaction Biology Corp
Protocol: as §1

BRSK2 = target: T21, BRSK2 (Homo sapiens, UniProt Q8IWQ3)
T21 construct: purchased Reaction Biology Corp
Protocol: as §1

ROS1 = target: T22, ROS1 (Homo sapiens, UniProt P08922)
T22 construct: purchased Reaction Biology Corp
Protocol: as §1

ERK5 = target: T23, ERK5 (Homo sapiens, UniProt Q13164)
T23 construct: purchased Reaction Biology Corp
Protocol: as §1

DYRK4 = target: T24, DYRK4 (Homo sapiens, UniProt Q9NR20)
T24 construct: purchased Reaction Biology Corp
Protocol: as §1

PYK2 = target: T25, PYK2 (Homo sapiens, UniProt Q14289)
T25 construct: purchased Reaction Biology Corp
Protocol: as §1

CIT = target: T26, CIT (Homo sapiens, UniProt O14578)
T26 construct: purchased Reaction Biology Corp
Protocol: as §1

BRK = target: T27, BRK (Homo sapiens, UniProt Q13882)
T27 construct: purchased Reaction Biology Corp
Protocol: as §1

MET = target: T28, MET (Homo sapiens, UniProt P08581)
T28 construct: purchased Reaction Biology Corp
Protocol: as §1

HIPK1 = target: T29, HIPK1 (Homo sapiens, UniProt Q86Z02)
T29 construct: purchased Reaction Biology Corp
Protocol: as §1

FGFR2 = target: T30, FGFR2 (Homo sapiens, UniProt P21802)
T30 construct: purchased Reaction Biology Corp
Protocol: as §1

CSK = target: T31, CSK (Homo sapiens, UniProt P41240)
T31 construct: purchased Reaction Biology Corp
Protocol: as §1

NIM1 = target: T32, NIM1 (Homo sapiens, UniProt Q8IY84)
T32 construct: purchased Reaction Biology Corp
Protocol: as §1

PDGFRb = target: T33, PDGFRb (Homo sapiens, UniProt P09619)
T33 construct: purchased Reaction Biology Corp
Protocol: as §1

RIPK4 = target: T34, RIPK4 (Homo sapiens, UniProt P57078)
T34 construct: purchased Reaction Biology Corp
Protocol: as §1

EPHA1 = target: T35, EPHA1 (Homo sapiens, UniProt P21709)
T35 construct: purchased Reaction Biology Corp
Protocol: as §1

MAP3K3 = target: T36, MAP3K3 (Homo sapiens, UniProt Q99759)
T36 construct: purchased Reaction Biology Corp
Protocol: as §1

CDK6/cyclinD1 = target: T37, CDK6/cyclinD1 (Homo sapiens, UniProt Q00534)
T37 construct: purchased Reaction Biology Corp
Protocol: as §1

EPHA8 = target: T38, EPHA8 (Homo sapiens, UniProt P29322)
T38 construct: purchased Reaction Biology Corp
Protocol: as §1

CAMK1b = target: T39, CAMK1b (Homo sapiens, UniProt Q6P2M8)
T39 construct: purchased Reaction Biology Corp
Protocol: as §1

MST1R = target: T40, MST1R (Homo sapiens, UniProt Q04912)
T40 construct: purchased Reaction Biology Corp
Protocol: as §1

DYRK2 = target: T41, DYRK2 (Homo sapiens, UniProt Q92630)
T41 construct: purchased Reaction Biology Corp
Protocol: as §1

PKAC-beta = target: T42, PKAC-beta (Homo sapiens, UniProt P22694)
T42 construct: purchased Reaction Biology Corp
Protocol: as §1

FMS = target: T43, FMS (Homo sapiens, UniProt P07333)
T43 construct: purchased Reaction Biology Corp
Protocol: as §1

FLT1 = target: T44, FLT1 (Homo sapiens, UniProt P17948)
T44 construct: purchased Reaction Biology Corp
Protocol: as §1

T20 sequence (P06493 whole entry): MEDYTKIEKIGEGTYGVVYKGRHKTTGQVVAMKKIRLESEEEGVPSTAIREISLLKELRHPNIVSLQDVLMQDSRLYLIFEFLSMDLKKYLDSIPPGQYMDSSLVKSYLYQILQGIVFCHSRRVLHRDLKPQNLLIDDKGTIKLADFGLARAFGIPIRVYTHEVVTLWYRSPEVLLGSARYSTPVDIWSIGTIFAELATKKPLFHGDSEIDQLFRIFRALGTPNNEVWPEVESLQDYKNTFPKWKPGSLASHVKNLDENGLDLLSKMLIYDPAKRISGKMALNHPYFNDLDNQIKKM
T20 sequence (P14635 whole entry partner): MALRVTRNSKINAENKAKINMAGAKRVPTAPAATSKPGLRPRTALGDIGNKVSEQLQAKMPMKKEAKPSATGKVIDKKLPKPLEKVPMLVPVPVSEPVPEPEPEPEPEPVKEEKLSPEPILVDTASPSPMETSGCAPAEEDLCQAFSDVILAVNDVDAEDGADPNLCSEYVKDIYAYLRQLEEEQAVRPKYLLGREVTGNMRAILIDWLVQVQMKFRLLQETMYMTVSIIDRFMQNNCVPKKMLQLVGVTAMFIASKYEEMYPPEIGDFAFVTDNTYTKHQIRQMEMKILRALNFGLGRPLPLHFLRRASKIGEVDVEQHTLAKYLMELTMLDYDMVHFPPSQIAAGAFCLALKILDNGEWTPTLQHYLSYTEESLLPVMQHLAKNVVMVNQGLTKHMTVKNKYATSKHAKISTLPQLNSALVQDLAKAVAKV
T19 sequence (Q86YV6 whole entry): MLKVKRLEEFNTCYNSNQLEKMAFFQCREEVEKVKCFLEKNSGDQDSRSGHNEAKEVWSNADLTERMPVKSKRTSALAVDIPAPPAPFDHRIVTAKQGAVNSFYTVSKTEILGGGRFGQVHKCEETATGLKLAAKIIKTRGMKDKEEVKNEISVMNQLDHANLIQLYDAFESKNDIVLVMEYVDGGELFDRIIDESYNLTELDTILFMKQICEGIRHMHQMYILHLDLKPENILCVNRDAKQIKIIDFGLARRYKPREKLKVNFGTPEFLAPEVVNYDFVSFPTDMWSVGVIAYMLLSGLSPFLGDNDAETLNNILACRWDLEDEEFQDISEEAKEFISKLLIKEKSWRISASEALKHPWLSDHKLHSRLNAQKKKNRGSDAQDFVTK
T22 sequence (P08922 28-2347): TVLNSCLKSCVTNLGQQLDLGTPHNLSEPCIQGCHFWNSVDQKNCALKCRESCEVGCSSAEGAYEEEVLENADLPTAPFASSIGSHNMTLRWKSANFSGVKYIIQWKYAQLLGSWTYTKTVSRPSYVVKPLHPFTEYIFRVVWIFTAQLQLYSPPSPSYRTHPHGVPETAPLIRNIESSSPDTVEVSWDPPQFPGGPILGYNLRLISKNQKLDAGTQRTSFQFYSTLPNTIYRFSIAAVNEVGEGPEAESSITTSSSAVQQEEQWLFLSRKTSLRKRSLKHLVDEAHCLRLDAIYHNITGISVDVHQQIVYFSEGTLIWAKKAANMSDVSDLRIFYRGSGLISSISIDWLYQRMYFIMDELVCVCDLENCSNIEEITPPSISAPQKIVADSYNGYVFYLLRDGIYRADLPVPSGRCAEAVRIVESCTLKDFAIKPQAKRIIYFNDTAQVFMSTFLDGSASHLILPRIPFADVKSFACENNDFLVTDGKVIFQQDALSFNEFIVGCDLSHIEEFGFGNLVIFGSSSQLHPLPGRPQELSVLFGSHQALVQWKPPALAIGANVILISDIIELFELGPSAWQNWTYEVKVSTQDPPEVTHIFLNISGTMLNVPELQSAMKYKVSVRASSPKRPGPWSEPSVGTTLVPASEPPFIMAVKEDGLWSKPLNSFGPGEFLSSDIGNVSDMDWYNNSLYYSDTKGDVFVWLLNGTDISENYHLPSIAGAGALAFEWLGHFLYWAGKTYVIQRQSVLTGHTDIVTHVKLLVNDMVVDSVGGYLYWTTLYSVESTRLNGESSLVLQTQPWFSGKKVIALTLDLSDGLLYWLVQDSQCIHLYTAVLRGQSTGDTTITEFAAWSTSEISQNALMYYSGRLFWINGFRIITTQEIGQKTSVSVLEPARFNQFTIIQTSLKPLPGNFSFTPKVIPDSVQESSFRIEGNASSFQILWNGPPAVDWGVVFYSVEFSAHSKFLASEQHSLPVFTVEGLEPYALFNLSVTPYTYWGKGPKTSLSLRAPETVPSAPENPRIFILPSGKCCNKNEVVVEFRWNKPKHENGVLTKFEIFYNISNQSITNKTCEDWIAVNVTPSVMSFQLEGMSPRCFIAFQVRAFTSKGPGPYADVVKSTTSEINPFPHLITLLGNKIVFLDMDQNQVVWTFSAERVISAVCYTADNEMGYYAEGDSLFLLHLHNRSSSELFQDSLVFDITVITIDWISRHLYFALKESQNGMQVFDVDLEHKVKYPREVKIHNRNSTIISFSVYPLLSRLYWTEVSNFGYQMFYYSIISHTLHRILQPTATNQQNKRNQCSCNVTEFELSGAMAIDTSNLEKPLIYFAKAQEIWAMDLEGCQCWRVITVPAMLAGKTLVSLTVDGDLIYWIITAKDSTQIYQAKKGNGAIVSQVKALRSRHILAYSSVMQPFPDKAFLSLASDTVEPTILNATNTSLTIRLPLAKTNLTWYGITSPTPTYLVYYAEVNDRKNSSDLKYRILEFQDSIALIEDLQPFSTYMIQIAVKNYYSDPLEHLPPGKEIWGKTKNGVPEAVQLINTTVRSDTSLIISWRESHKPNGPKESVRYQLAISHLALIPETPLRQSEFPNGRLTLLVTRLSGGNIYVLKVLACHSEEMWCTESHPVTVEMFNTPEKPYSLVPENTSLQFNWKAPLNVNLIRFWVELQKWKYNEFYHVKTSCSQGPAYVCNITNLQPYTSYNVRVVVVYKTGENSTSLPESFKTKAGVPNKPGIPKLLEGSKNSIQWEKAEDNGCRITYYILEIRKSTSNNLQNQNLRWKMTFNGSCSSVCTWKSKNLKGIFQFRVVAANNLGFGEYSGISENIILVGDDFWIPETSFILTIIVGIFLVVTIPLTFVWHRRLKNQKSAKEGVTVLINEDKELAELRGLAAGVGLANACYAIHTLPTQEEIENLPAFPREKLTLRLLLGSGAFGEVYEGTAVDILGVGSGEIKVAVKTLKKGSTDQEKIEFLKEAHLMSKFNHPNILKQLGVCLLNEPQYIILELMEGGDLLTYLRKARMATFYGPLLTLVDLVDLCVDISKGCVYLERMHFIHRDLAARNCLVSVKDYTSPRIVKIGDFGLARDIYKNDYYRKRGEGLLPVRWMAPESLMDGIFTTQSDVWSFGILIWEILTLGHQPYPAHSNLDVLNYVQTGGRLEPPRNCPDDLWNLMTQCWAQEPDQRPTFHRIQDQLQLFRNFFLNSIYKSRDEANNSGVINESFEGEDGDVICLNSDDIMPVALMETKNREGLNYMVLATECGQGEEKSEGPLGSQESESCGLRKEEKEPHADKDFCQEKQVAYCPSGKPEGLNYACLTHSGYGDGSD
T32 sequence (Q8IY84 whole entry): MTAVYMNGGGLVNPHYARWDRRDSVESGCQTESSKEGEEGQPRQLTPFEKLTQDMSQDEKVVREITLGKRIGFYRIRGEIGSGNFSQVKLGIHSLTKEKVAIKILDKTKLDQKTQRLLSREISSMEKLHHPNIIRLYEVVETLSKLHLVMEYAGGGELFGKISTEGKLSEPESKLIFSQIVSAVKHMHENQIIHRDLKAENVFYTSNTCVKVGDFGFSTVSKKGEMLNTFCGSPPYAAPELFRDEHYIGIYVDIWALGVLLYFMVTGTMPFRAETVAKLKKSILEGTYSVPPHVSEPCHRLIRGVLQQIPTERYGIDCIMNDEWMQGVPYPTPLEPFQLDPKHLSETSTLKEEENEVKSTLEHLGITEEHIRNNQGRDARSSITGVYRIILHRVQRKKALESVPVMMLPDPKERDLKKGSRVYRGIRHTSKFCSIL
T36 sequence (Q99759 whole entry): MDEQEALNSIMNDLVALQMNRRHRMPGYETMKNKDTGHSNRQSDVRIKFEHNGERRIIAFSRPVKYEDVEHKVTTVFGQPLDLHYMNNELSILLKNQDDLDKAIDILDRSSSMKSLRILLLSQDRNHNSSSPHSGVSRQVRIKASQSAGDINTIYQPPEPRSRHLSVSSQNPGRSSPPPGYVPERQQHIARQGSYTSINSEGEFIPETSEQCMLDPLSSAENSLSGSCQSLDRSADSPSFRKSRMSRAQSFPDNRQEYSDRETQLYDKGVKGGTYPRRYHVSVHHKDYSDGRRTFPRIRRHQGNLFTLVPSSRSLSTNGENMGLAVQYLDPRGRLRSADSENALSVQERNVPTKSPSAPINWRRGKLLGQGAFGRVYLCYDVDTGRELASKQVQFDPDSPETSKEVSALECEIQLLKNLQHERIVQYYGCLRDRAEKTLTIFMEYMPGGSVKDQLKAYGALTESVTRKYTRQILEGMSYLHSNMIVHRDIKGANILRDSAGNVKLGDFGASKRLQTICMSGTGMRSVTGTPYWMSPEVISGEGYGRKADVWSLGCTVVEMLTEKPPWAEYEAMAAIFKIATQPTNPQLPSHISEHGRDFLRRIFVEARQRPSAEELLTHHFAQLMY
T27 sequence (Q13882 whole entry): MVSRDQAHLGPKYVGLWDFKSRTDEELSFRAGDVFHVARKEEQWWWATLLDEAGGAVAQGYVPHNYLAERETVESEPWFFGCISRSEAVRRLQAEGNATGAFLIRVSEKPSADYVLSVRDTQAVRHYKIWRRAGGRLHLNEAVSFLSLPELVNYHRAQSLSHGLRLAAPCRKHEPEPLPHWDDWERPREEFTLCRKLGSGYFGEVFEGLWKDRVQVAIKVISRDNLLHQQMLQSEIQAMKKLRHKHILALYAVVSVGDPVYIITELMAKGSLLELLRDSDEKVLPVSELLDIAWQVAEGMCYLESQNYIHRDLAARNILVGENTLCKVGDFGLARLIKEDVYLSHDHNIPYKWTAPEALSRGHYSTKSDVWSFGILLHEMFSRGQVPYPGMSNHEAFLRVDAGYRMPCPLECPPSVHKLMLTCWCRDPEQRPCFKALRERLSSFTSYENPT

CCn1cnc2c(NCc3ccc(-c4ccccn4)nc3)nc(-c3ccc(N)nc3)nc21 [Compound 30d, N-([2,2′-Bipyridin]-5-ylmethyl)-2-(6-aminopyridin-3-yl)-9-ethyl-9H-purin-6-amine]
remaining activity at 10 µM (RSK3): 58.1% | remaining activity at 10 µM (MARK3): 83.1% | remaining activity at 10 µM (PCTK2): 7.3% | remaining activity at 10 µM (MAP4K5): 88.3% | remaining activity at 10 µM (WNK2): 108% | remaining activity at 10 µM (IRAK4): 94.8% | remaining activity at 10 µM (CSNK1E): 22.9% | remaining activity at 10 µM (JAK1): 92.1% | remaining activity at 10 µM (JNK1): 41.6% | remaining activity at 10 µM (NLK): 24.8% | remaining activity at 10 µM (CSNK1G1): 29.8% | remaining activity at 10 µM (CHEK1): 79.5% | remaining activity at 10 µM (ERK7): 13.5% | remaining activity at 10 µM (PAK5): 7.6% | remaining activity at 10 µM (TRKB): 16.5% | remaining activity at 10 µM (CLK1): 13.7% | remaining activity at 10 µM (LYN): 65.7% | remaining activity at 10 µM (NEK7): 93.2% | inhibition at 10 µM (MYLK4): > 95% | remaining activity at 10 µM (MYLK4): 4.1% | inhibition at 10 µM (CDK1/cyclinB): > 95% | remaining activity at 10 µM (CDK1/cyclinB): 2.1% | remaining activity at 10 µM (BRSK2): 97.5% | remaining activity at 10 µM (ROS1): 27.8% | remaining activity at 10 µM (ERK5): 97.7% | remaining activity at 10 µM (DYRK4): 89.3% | remaining activity at 10 µM (PYK2): 47.5% | remaining activity at 10 µM (CIT): 97.9% | remaining activity at 10 µM (BRK): 46.6% | remaining activity at 10 µM (MET): 96.4% | remaining activity at 10 µM (HIPK1): 93% | remaining activity at 10 µM (FGFR2): 33.7% | remaining activity at 10 µM (CSK): 54.8% | remaining activity at 10 µM (NIM1): 76% | remaining activity at 10 µM (PDGFRb): 34.7% | remaining activity at 10 µM (RIPK4): 97.8% | remaining activity at 10 µM (EPHA1): 13.2% | remaining activity at 10 µM (MAP3K3): 94% | remaining activity at 10 µM (CDK6/cyclinD1): 24.2% | remaining activity at 10 µM (EPHA8): 94% | remaining activity at 10 µM (CAMK1b): 66.8% | remaining activity at 10 µM (MST1R): 86.8% | remaining activity at 10 µM (DYRK2): 22.3% | remaining activity at 10 µM (PKAC-beta): 104% | remaining activity at 10 µM (FMS): 35.4% | remaining activity at 10 µM (FLT1): 36.3%
